The text below walks through data of US8314120B2, “Small molecule potentiators of metabotropic glutamate receptors” (Abbott GmbH & Co. KG, priority 2010, dated 2012).

The structures appear in SMILES notation. Counter-ions that a name gives are not always drawn.

The term EC50 denotes the concentration that produces a half-maximal response.

T1 sequence (Q14416 19-872): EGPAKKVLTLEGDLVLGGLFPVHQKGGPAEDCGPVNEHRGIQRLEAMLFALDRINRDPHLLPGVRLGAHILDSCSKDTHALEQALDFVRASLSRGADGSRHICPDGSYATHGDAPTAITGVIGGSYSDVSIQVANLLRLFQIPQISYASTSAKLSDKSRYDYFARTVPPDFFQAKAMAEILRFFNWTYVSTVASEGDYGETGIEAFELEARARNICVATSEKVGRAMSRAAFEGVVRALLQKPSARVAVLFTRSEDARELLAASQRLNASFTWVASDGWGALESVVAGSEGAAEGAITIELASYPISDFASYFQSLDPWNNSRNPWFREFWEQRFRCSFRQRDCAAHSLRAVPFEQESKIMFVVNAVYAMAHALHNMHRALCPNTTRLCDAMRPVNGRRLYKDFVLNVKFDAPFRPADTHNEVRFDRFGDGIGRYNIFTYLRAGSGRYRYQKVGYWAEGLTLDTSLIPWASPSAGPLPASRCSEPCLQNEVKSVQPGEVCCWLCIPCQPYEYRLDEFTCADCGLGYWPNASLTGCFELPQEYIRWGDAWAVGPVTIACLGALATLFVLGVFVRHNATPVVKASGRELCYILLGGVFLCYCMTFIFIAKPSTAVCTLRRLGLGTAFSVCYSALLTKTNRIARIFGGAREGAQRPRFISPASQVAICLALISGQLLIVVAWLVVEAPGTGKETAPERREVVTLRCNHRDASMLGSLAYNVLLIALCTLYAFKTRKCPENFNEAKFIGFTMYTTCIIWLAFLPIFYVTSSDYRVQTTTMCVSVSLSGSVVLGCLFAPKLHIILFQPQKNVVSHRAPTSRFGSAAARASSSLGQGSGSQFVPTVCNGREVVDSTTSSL

One assay concerns the target T1, mGlu2 (Homo sapiens, UniProt Q14416).
Test: not given
The conditions noted are these: agonist; cited from earlier work.
`N[C@@]1(C(=O)O)CO[C@H]2[C@H](C(=O)O)[C@H]21` [LY379268]: the EC50 is 3 nM.

Another assay deals with T1, mGlu2. Put plainly: FLIPR intracellular Ca2+ assay, potentiation of glutamate at mGlu2 receptor in HEK293 cell clone. It counts as cell-based. The arrangement: V5/His (named in the vector only); expressed in transfected cells; host or cells: HEK293. As to conditions: potentiation of 1 μM glutamate, HEK293 cells expressing human mGlu2, rGLAST and Galpha16. Here is the method:
For the purpose of the present study, a cell line permanently expressing the human mGlu2 receptor, the rat glutamate transporter rGLAST and the alpha subunit of G16 was generated by transfection. Briefly, HEK293 cells were seeded in petri dishes (diameter 15 cm) at a density of 2×10^6 cells in DMEM with glutamax (Invitrogen, GIBCO #21885-025), 10% dialyzed Fetal Calf Serum (Invitrogen, Gibco #26400-044), and incubated at 37° C. over night. The following day cells were transfected with Lipofectamine (Invitrogen, Gibco #18324-012) as recommended by the manufacturer, using linearized pcDNA3.1 (V5/His)-hmGlu2 receptor (ScaI) and pcDNA3.1 Zeo-Ga16 IRES rGLAST (SspI). After transfection the cells were selected in DMEM Glutamax Medium (Invitrogen, GIBCO #21885-025), containing 10% dialyzed fetal calf serum (FCS; (Invitrogen, Gibco #26400-044), antibiotic/antimycotic, 800 μg/ml Geneticin (G418) and 250 μg/ml Zeozin. Single clones were isolated manually and further subcloned by serial dilution.
The function of the mGlu2 receptor was determined by evaluating intracellular Ca^2+ concentrations under standard conditions in a fluorometric imaging plate reader (FLIPR, Molecular Devices, Union City, Calif. 94587, USA) by measuring the response of the cells to a test compound. The FLIPR assay is a common functional assay to monitor native or recombinant Galphaq-coupled receptors, and native or recombinant receptors normally linked to other G-protein signalling cascades, which are coupled to calcium through co-expression of an alpha subunit of a promiscuous or chimeric G-protein. In the assay the increase of intracellular calcium is measured through a calcium-dependent fluorescent dye (e.g. Fluo-4 AM) in the FLIPR instrument.
For selection of a suitable cell clone and also the subsequent measurements of the selected clone, 4×10^4 cells/well were plated on poly-D-lysine coated Biocoat-plates multiwell 96 in DMEM Glutamax (GIBCO #21885-025)/10% dialyzed FCS over night. The following day, the medium was aspirated and exchanged for glutamate-free DMEM (Gibco #21969-035), without FCS or glutamine, containing 50 μg/ml gentamycin (Gibco #15750). Cells were again incubated over night. Before the measurement, cells were loaded with 2 μM Fluo-4 AM (Molecular Probes, F14201; stock solution 1 mM in DMSO) and 0.02% Pluronic F127 (Molecular Probes, P3000; stock solution 10% in DMSO) in DMEM medium (Gibco #21969-035) for 45 minutes at 37° C. in a final volume of 100 μl per well. Finally, the plates were washed in a BioTec cell washer with HBSS, containing 20 mM HEPES. The end-volume in each well was 100 μl. The plates were subsequently measured in a fluorometric imaging plate reader (FLIPR, Molecular Devices, Union City, Calif. 94587, USA).
The compounds of the present invention were tested in the above-described FLIPR assay using the selected cell clone. Increased intracellular calcium levels were quantified following addition of test compound (agonism), as well as following addition of a submaximal concentration of 1 micromolar (1 μM) glutamate (potentiation).
For the determination of the effect of the test compound by itself (agonism) or by increasing the response to a submaximal concentration (e.g. 1 μM) of glutamate (potentiation), the resulting signal is determined by subtraction of the background fluorescence from the maximal fluorescent peak height of the respective response. In the FLIPR instrument the compound is given to the cell and its fluorescence response quantified by the FLIPR instrument (agonism). The concentration at which the compound exerts half its maximal effect is named the ‘effective concentration 50’ or ‘EC50’. The maximal effect induced by the test substance is normalized to the maximal effect exerted by 100 μM glutamate (set at 100%).
Ten minutes after addition of the test compound to the plate, 1 μM glutamate is added. A potentiator enhances the response of the receptor to glutamate. […]
With `CCCCN1Cc2cc(Nc3cc(N4CCNCC4)cnc3Cl)ccc2C1=O` [Example 6, 2-butyl-5-{[2-chloro-5-(piperazin-1-yl)pyridin-3-yl]amino}-2,3-dihydro-1H-isoindol-1-one], the EC50 lay in the range of 2000 to 10000 nM.

As for `CCCCN1Cc2cc(Nc3cnc4ccccc4n3)ccc2C1=O` [Example 18, 2-butyl-5-(quinoxalin-2-ylamino)-2,3-dihydro-1H-isoindol-1-one], the EC50 was 2000 to 10000 nM. For the compound `CCCCN1CCc2c(Oc3cncc(-c4ccccc4)c3)cccc2C1=O` [Example 13, 2-butyl-5-[(5-phenylpyridin-3-yl)oxy]-3,4-dihydroisoquinolin-1(2H)-one trifluoroacetate], the EC50 is less than 500 nM. For the compound `CCCCN1Cc2cc(-c3cncc(-c4ccccc4)c3)ccc2C1=O` [Example 24, 2-butyl-5-(5-phenylpyridin-3-yl)-2,3-dihydro-1H-isoindol-1-one], the EC50 lay in the range of 500 to 2000 nM. On to `CCCCN1Cc2cc(Nc3cnc4ccccc4c3)ccc2C1=O` [Example 17, 2-butyl-5-(quinolin-3-ylamino)-2,3-dihydro-1H-isoindol-1-one], for which the EC50 fell in the range of 500 to 2000 nM. For `CCCCN1Cc2cc(Nc3cncc(-c4ccccc4)n3)ccc2C1=O` [Example 16, 2-butyl-5-(6-phenyl-pyrazin-2-ylamino)-2,3-dihydro-isoindol-1-one], the EC50 was less than 500 nM. For the compound `CCCCN1Cc2cc(Oc3cncc(-c4ccccc4)c3)ccc2C1=O` [Example 11, 2-butyl-5-[(5-phenylpyridin-3-yl)oxy]-2,3-dihydro-1H-isoindol-1-one], the EC50 was less than 500 nM. Still for that read-out and setting: next, `CCCCN1CCc2cc(Oc3cncc(-c4ccccc4)c3)ccc2C1=O` [Example 14, 2-butyl-6-[(5-phenylpyridin-3-yl)oxy]-3,4-dihydroisoquinolin-1(2H)-one trifluoroacetate]: less than 500 nM; `CCCCN1Cc2cc(Nc3cncc(-c4ccccc4)c3)cc(Cl)c2C1=O` [Example 4, 2-butyl-7-chloro-5-[(5-phenylpyridin-3-yl)amino]-2,3-dihydro-1H-isoindol-1-one]: 500 to 2000 nM; `CCCCN1Cc2cc(Nc3cccnc3Cl)ccc2C1=O` [Example 20, 2-butyl-5-[(2-chloropyridin-3-yl)amino]-2,3-dihydro-1H-isoindol-1-one]: 2000 to 10000 nM. Regarding `CCCCN1Cc2cc(Nc3cncc(N4CCN(C)CC4)c3)ccc2C1=O` [Example 10, 2-butyl-5-{[5-(4-methylpiperazin-1-yl)pyridin-3-yl]amino}-2,3-dihydro-1H-isoindol-1-one], the EC50 lay within 2000 to 10000 nM.

As to `CCCCN1Cc2cc(Nc3cncc(Cl)c3)ccc2C1=O` [Example 7, 2-butyl-5-[(5-chloropyridin-3-yl)amino]-2,3-dihydro-1H-isoindol-1-one], the EC50 is 500 to 2000 nM.

Consider `CCCCN1Cc2cc(Nc3cncc(N4CCNCC4)c3)ccc2C1=O` [Example 5, 2-butyl-5-{[5-(piperazin-1-yl)pyridin-3-yl]amino}-2,3-dihydro-1H-isoindol-1-one], for which the EC50 lay in the range of 2000 to 10000 nM. `CCCCN1Cc2cc(Cc3cncc(-c4ccccc4)c3)ccc2C1=O` [Example 23, 2-butyl-5-[(5-phenylpyridin-3-yl)methyl]-2,3-dihydro-1H-isoindol-1-one]: the EC50 was in the range of 500 to 2000 nM.

Take `CCCCN1CCc2c(Oc3cc(N4CCN(C)CC4)cnc3Cl)cccc2C1=O` [Example 22, 2-butyl-5-{[2-chloro-5-(4-methylpiperazin-1-yl)pyridin-3-yl]oxy}-3,4-dihydroisoquinolin-1(2H)-one]: the EC50 was in the range of 500 to 2000 nM. The same measure, in the same setting: next, `COCCN1Cc2cc(Nc3cncc(-c4ccccc4)c3)ccc2C1=O` [Example 19, 2-(2-methoxyethyl)-5-[(5-phenylpyridin-3-yl)amino]-2,3-dihydro-1H-isoindol-1-one]: 500 to 2000 nM. With `CCCCN1CCc2c(Oc3cc(N4CCNCC4)cnc3Cl)cccc2C1=O` [Example 21, 2-butyl-5-{[2-chloro-5-(piperazin-1-yl)pyridin-3-yl]oxy}-3,4-dihydroisoquinolin-1(2H)-one], the EC50 was 500 to 2000 nM. For `CCCCN1Cc2ccc(Oc3cncc(-c4ccccc4)c3)cc2C1=O` [Example 15, 2-butyl-6-[(5-phenylpyridin-3-yl)oxy]-2,3-dihydro-1H-isoindol-1-one trifluoroacetate], the EC50 lay in the range of 500 to 2000 nM. Regarding `CCCCN1Cc2cc(Nc3cncc(N4CCOCC4)c3)ccc2C1=O` [Example 8, 2-butyl-5-{[5-(morpholin-4-yl)pyridin-3-yl]amino}-2,3-dihydro-1H-isoindol-1-one], the EC50 is less than 500 nM.

Take `CCCCN1Cc2cc(Nc3cc(N4CCN(C)CC4)cnc3Cl)ccc2C1=O` [Example 9, 2-butyl-5-{[2-chloro-5-(4-methylpiperazin-1-yl)pyridin-3-yl]amino}-2,3-dihydro-1H-isoindol-1-one]: the EC50 lay in the range of 500 to 2000 nM.

Consider `CCCCN1Cc2c(Oc3cncc(-c4ccccc4)c3)cccc2C1=O` [Example 12, 2-butyl-4-[(5-phenylpyridin-3-yl)oxy]-2,3-dihydro-1H-isoindol-1-one trifluoroacetate], for which the EC50 was less than 500 nM.
